Assay results as given in ChEMBL document CHEMBL5729078, “Inhibitors of cysteine proteases and methods of use thereof” (2022).
pEC50, pIC50: −log10 of the molar value.

Experiment: Evaluation of Antiviral Activity of Compounds Against Human Coronavirus (HCov) 229E and OC43 in the Cytopathic Effect (CPE) Assays: Compounds were assayed using standard methods against multiple coronaviral strains, including HCoV 229E and OC43 strains.

Row | Structure (SMILES) | pEC50 | pIC50
1 | CCCOc1cccc2[nH]c(C(=O)N[C@@H](CC(C)C)C(=O)N[C@H](C#N)C[C@@H]3CCNC3=O)cc12 | > 5.70 | 
2 | N#C[C@H](C[C@@H]1CCCNC1=O)NC(=O)[C@H]1CC2(CN1C(=O)c1cc3cccc(Cl)c3[nH]1)CC(F)(F)C2 (single isomer, unassigned) | > 5.70 | > 5.70
3 | N#C[C@H](C[C@@H]1CCCNC1=O)NC(=O)[C@@H]1CC2(CCCCC2)CN1C(=O)c1cc2ccc(Cl)cc2[nH]1 (single isomer, unassigned) | > 5.70 | > 5.70
4 | COc1cccc2[nH]c(C(=O)N[C@@H](CC3CC3)C(=O)N[C@@]3(C#N)C[C@@H]4CC[C@@H]3[C@H]3C(=O)NC(=O)[C@@H]43)cc12 (single isomer, unassigned; isomer 1) |  | < 4.52
5 | COc1cccc2[nH]c(C(=O)N3CC4(CCC4)C[C@@H]3C(=O)N[C@H](C#N)C[C@@H]3CCCNC3=O)cc12 (single isomer, unassigned; isomer 2) | > 5.70 | 
